In one assay the test system is Escherichia coli. Briefly: Inhibition of Escherichia coli. It is filed as cell-based.
For another assay, the system named is Trypanosoma brucei. The assay can be described thus: Inhibition of Trypanosoma brucei. It counts as cell-based.
The next assay has as its target CB2 receptor (Homo sapiens, UniProt P34972). The assay can be described thus: CB2 receptor displacement. It counts as binding.
The target in the next assay is Mu opioid receptor (Homo sapiens, UniProt P35372). Briefly: Mu opioid receptor displacement. It counts as binding.
In the next assay the test system is Leishmania donovani. Briefly: Activity towards Leishmania donovani. It is filed as cell-based.
The next assay has as its target Delta opioid receptor (Homo sapiens, UniProt P41143). Briefly: Delta opioid receptor displacement. It is filed as binding.

CB2 receptor, sequence (P34972 whole entry): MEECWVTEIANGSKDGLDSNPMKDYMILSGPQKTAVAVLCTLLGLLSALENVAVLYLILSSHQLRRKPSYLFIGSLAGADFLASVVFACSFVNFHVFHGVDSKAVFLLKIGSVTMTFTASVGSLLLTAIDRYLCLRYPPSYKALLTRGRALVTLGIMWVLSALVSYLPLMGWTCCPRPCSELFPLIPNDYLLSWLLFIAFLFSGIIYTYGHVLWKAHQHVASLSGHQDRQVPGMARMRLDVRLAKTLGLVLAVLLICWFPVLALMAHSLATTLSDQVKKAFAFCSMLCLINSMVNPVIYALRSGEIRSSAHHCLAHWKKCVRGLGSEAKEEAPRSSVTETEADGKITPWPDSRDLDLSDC
Delta opioid receptor, sequence (P41143 whole entry): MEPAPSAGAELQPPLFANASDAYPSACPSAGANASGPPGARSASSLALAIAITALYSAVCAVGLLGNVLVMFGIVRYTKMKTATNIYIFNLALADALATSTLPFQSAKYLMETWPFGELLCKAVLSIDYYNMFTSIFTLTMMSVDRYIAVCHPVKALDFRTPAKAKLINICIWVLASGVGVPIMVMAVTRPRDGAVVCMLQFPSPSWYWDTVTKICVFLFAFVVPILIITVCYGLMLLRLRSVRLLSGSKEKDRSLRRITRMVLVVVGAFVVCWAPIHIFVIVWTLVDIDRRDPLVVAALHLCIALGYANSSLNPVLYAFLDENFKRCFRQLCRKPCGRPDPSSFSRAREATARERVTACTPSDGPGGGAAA
Mu opioid receptor, sequence (P35372 whole entry): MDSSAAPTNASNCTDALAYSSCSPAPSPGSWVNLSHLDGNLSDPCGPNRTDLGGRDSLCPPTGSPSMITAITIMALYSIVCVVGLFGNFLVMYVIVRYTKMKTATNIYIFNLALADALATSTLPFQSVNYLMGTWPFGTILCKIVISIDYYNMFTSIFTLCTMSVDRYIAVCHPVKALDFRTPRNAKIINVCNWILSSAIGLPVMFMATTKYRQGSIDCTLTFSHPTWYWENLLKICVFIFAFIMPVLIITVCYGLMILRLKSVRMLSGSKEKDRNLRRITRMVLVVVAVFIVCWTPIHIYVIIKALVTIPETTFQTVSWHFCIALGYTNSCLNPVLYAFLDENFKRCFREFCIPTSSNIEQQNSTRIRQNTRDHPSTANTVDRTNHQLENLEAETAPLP

myricitrin [Compound 11]: the “inhibition towards Escherichia coli Pinh” value with Escherichia coli was 99%. In addition, in the assay with Escherichia coli (read-out: IC50 Escherichia coli), the IC50 was 1.12 µM.
In the case of `CC1=C[C@H](O)CC(C)(C)[C@H]1/C=C/C(C)=C/C=C/C(C)=C/C=C/C=C(C)/C=C/C=C(C)/C=C/C1=C(C)C[C@@H](O)CC1(C)C` [Compound 4, lutein], in the assay on Trypanosoma brucei, the “inhibition towards Trypanosoma brucei” value is on record as 93%. In addition, the IC50 with Trypanosoma brucei (Trypanosoma brucei, read-out: IC50 T. brucei) worked out at 4.16 µM; at CB2 receptor, 56.5 µM; in the assay with Leishmania donovani (Leishmania donovani, read-out: IC50 Leishmania donovani) it was 9.3 µM. Moreover, on CB2 receptor, the “displacement in CB2 receptor” value was 73%. In addition, on Mu opioid receptor, the “displacement in Mu opioid receptor” value is listed as 49%. Moreover, the “activity towards Leishmania donovani” value in the assay with Leishmania donovani turned out to be 48%. In addition, the “displacement in Delta opioid receptor” value at Delta opioid receptor is 65%.

Usually IC50 stands for the concentration needed to halve the response being measured.
